Source: article PMC5580926 (Antiviral therapy, 2016)
Where two headings read alike, the source gives them in different places.

Assays:
[1] = in vitro; format: cell-based; conditions: human
[2] = ATPlite cytotoxicity assay under Con1b replicon efficacy assay conditions; format: cell-based; conditions: human
[3] = system: Con1b replicon; test: Con1b replicon efficacy assay; format: cell-based, HCV; conditions: Hepatitis C virus, read-out: EC50, Con1b replicon
[4] = system: HCVcc-Luc (2a); test: microbe, parasite or virus in culture; format: cell-based, HCV; conditions: read-out: EC50, HCVcc-Luc (2a)

Row | SMILES | CC50 [1] | CC50 [2] | EC50 [3] | EC50 ([4]; Hepatitis C virus) | CC50 ([2]; Con1b replicon cell line) | EC50 ([4]; single agent, mean of ≥3 independent tests ±SEM)
1 | CC(C)(C)NC(=O)N[C@H](C(=O)N1C[C@H]2[C@@H]([C@H]1C(=O)NC(CC1CCC1)C(=O)C(N)=O)C2(C)C)C(C)(C)C (some centres unmarked) [Boceprevir, boceprevir] | > 100000 nM | > 100000 nM | 620 ± 10 nM |  |  | 
2 | COC(=O)N[C@H](C(=O)N1CCC[C@H]1c1nc(-c2ccc(-c3ccc(-c4c[nH]c([C@@H]5CCCN5C(=O)[C@@H](NC(=O)OC)C(C)C)n4)cc3)cc2)c[nH]1)C(C)C [Daclatasvir, daclatasvir] | 45000 ± 1000 nM |  | 0.04 ± 0.02 nM | 0.04 ± 0.02 nM | 22000 ± 1000 nM | 
3 | C[C@@]1(O)[C@H](O)[C@@H](CO)O[C@H]1n1ccc(N)nc1=O [2′-C-methylcytidine] | > 100000 nM |  | 1610 ± 70 nM | 1400 ± 400 nM | > 100000 nM | 
4 | CCC[C@H](NC(=O)[C@@H]1[C@H]2CCC[C@H]2CN1C(=O)[C@@H](NC(=O)[C@@H](NC(=O)c1cnccn1)C1CCCCC1)C(C)(C)C)C(=O)C(=O)NC1CC1 [Telaprevir, telaprevir] | > 100000 nM |  | 550 ± 50 nM | 200 ± 40 nM | 97800 ± 900 nM | 
5 | CC(C)OC(=O)[C@H](C)N[P@](=O)(OC[C@H]1O[C@@H](n2ccc(=O)[nH]c2=O)[C@](C)(F)[C@@H]1O)Oc1ccccc1 [Sofosbuvir, sofosbuvir] | > 100000 nM | > 100000 nM | 400 ± 100 nM | 60 ± 2 nM |  | 
6 | CN1CCN([C@@H](c2ccccc2)c2ccc(Cl)cc2)CC1 [(S)-CCZ, (S)-chlorcyclizine] |  |  |  |  |  | 24 ± 9 nM
